Assay results taken from the supplement of paper PMC10307832.

Experiments:
Experiment in all cases: relative viability (nuclei count vs DMSO), 5 days (fraction); higher = more cells survive
Vemurafenib + Foretinib = compound: CCCS(=O)(=O)Nc1ccc(F)c(C(=O)c2c[nH]c3ncc(-c4ccc(Cl)cc4)cc23)c1F [Vemurafenib] + COc1cc2c(Oc3ccc(NC(=O)C4(C(=O)Nc5ccc(F)cc5)CC4)cc3F)ccnc2cc1OCCCN1CCOCC1 [Foretinib] (partner 0.25 µM)
Summary of the method: (§1)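 Nuclei were stained with Hoechst during a one-step fixation (final 0.05% Triton X-100, 1% formaldehyde, 1 ug/ml Hoechst) carried out 5 days after dosing, then counted on 4× images. The cells, lung cancer lines in 1536-well plates, had been dosed by pin tool the day after seeding with one drug alone or a fixed anchor-drug dose plus five library-drug doses (not always all listed) in √10 steps. Relative viability is the nuclei count in treated wells divided by that in vehicle wells, and each value is the median of duplicate plates.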

Vemurafenib + Pictilisib = compound: CCCS(=O)(=O)Nc1ccc(F)c(C(=O)c2c[nH]c3ncc(-c4ccc(Cl)cc4)cc23)c1F [Vemurafenib] + CS(=O)(=O)N1CCN(Cc2cc3nc(-c4cccc5[nH]ncc45)nc(N4CCOCC4)c3s2)CC1 [Pictilisib] (partner 1 µM)
Summary of the method: as §1

OSI-027 + Navitoclax = compound: COc1cccc2cc(-c3nc([C@H]4CC[C@H](C(=O)O)CC4)n4ncnc(N)c34)[nH]c12 [OSI-027] + CC1(C)CCC(c2ccc(Cl)cc2)=C(CN2CCN(c3ccc(C(=O)NS(=O)(=O)c4ccc(N[C@H](CCN5CCOCC5)CSc5ccccc5)c(S(=O)(=O)C(F)(F)F)c4)cc3)CC2)C1 [Navitoclax] (partner 0.5 µM)
Summary of the method: as §1

OSI-027 + Foretinib = compound: COc1cccc2cc(-c3nc([C@H]4CC[C@H](C(=O)O)CC4)n4ncnc(N)c34)[nH]c12 [OSI-027] + COc1cc2c(Oc3ccc(NC(=O)C4(C(=O)Nc5ccc(F)cc5)CC4)cc3F)ccnc2cc1OCCCN1CCOCC1 [Foretinib] (partner 0.25 µM)
Summary of the method: as §1

Cell Line	relative viability (Vemurafenib + Foretinib; first compound 0.03162 µM)	relative viability (Vemurafenib + Foretinib; first compound 0.1 µM)	relative viability (Vemurafenib + Foretinib; first compound 0.3162 µM)	relative viability (Vemurafenib + Foretinib; first compound 1 µM)	relative viability (Vemurafenib + Pictilisib; first compound 0.03162 µM)	relative viability (Vemurafenib + Pictilisib; first compound 0.1 µM)	relative viability (Vemurafenib + Pictilisib; first compound 0.3162 µM)	relative viability (Vemurafenib + Pictilisib; first compound 1 µM)	relative viability (OSI-027 + Navitoclax; first compound 0.01 µM)	relative viability (OSI-027 + Navitoclax; first compound 0.03162 µM)	relative viability (OSI-027 + Navitoclax; first compound 0.1 µM)	relative viability (OSI-027 + Navitoclax; first compound 0.3162 µM)	relative viability (OSI-027 + Navitoclax; first compound 1 µM)	relative viability (OSI-027 + Foretinib; first compound 0.01 µM)	relative viability (OSI-027 + Foretinib; first compound 0.03162 µM)	relative viability (OSI-027 + Foretinib; first compound 0.1 µM)	relative viability (OSI-027 + Foretinib; first compound 0.3162 µM)	relative viability (OSI-027 + Foretinib; first compound 1 µM)
NCI-H441	0.962	0.696	0.919	0.912	0.44	0.402	0.544	0.35	0.47	0.57	0.425	0.47	0.185	1.09	0.859	0.842	0.823	0.538
NCI-H460	0.96	0.982	0.909	1.05	0.332	0.438	0.271	0.296	1.21	1.06	1.3	0.789	0.0638	1.06	0.762	1	0.948	0.582
NCI-H520	0.702	0.763	0.897	0.626	0.283	0.369	0.372	0.268	1.31	1.05	0.793	0.637	0.303	0.894	0.796	0.59	0.333	0.31
NCI-H596	0.921	0.643	0.695	0.922	0.352	0.356	0.429	0.388	0.888	0.941	0.933	0.85	0.459	0.834	0.923	0.781	0.59	0.602
NCI-H647	1.12	1.11	1.34	1.02	0.343	0.39		0.434	1.18	1.11	1.09	0.994	0.643	1.39	1.14	1.28	1.01	0.575
NCI-H727	0.883	0.768	1.31	0.969	0.353	0.32	0.568	0.315	0.406	0.418	0.477	0.378	0.318	0.601	1.03	0.863	0.812	0.398
NCI-H838	0.964	1.05		1.07	0.401	0.445		0.626	0.981	0.998	0.853	0.501	0.276	1.04	0.827	0.901	0.568	0.416
NCI-H1299	1.05	1.06	1	1.09	0.732	0.719	0.843	0.622	1.07	1.05	1.08	1.1	1	1.14	1.13	1.09	1.14	1.03
NCI-H1355	0.922	0.924	1	1.03	0.419	0.426	0.377	0.395	0.84	0.868	0.855	0.529	0.205	1.01	0.784	0.928	0.763	0.33
NCI-H1395	1.02	0.976		1.01	0.672	0.613		0.521	1.16	0.998	1.03	0.85	0.79	0.965	0.903	0.959	0.847	0.637
NCI-H1437	1.18	1.22	1.3	1.27	0.445	0.376	0.512	0.333	1.12	1.01	1.14	1	0.487	1.27	1.26	1.34	1.28	0.691
NCI-H1650		0.649		1.19	0.487		0.581	0.601	1.21	1.47	1.11	1.29	0.459	1.42	1.21	1.19	1.25	0.797
NCI-H1651	0.647	0.742	0.88	0.789	0.523	0.6	0.665	0.527	1.07		0.935	0.836	0.341	0.732	0.677	0.69	0.653	0.491
NCI-H1666	0.99	0.87	0.993	0.925	0.387		0.482	0.331	0.912	0.878	0.662	0.575	0.391	1	0.942	0.922	0.795	0.783
NCI-H1703	0.358	0.307	0.329	0.374	0.245	0.21	0.233	0.252	0.864	1.11	0.991	0.625	0.512	0.324	0.336	0.291	0.429	0.324
NCI-H1734	0.81	0.82	0.779	0.763	0.452	0.545	0.432	0.367	0.749	0.836	0.785	0.746	0.384	0.87	0.92	0.799	0.726	0.477
NCI-H1755	0.882	0.889	0.891	0.832	0.342	0.347	0.314	0.381	1.01	0.968	0.988	0.753	0.279	0.859	0.92	0.835	0.809	0.522
NCI-H1793	0.789		0.709	0.922	0.442		0.477	0.379	0.399	0.387	0.407	0.318	0.223	0.574	0.557	0.539	0.345	0.166

Cell Line	relative viability (Vemurafenib + Foretinib; first compound 0.03162 µM)	relative viability (Vemurafenib + Foretinib; first compound 0.1 µM)	relative viability (Vemurafenib + Foretinib; first compound 0.3162 µM)	relative viability (Vemurafenib + Foretinib; first compound 1 µM)	relative viability (Vemurafenib + Pictilisib; first compound 0.03162 µM)	relative viability (Vemurafenib + Pictilisib; first compound 0.1 µM)	relative viability (Vemurafenib + Pictilisib; first compound 0.3162 µM)	relative viability (Vemurafenib + Pictilisib; first compound 1 µM)	relative viability (OSI-027 + Navitoclax; first compound 0.01 µM)	relative viability (OSI-027 + Navitoclax; first compound 0.03162 µM)	relative viability (OSI-027 + Navitoclax; first compound 0.1 µM)	relative viability (OSI-027 + Navitoclax; first compound 0.3162 µM)	relative viability (OSI-027 + Navitoclax; first compound 1 µM)	relative viability (OSI-027 + Foretinib; first compound 0.01 µM)	relative viability (OSI-027 + Foretinib; first compound 0.03162 µM)	relative viability (OSI-027 + Foretinib; first compound 0.1 µM)	relative viability (OSI-027 + Foretinib; first compound 0.3162 µM)	relative viability (OSI-027 + Foretinib; first compound 1 µM)
NCI-H1915	1.09	1.05	1.03	1	0.751	0.903	0.908	0.85	0.831	0.779	0.809	0.801	0.85	1.23	1.14	1.12	1.03	0.582
NCI-H1944	0.868	0.614	0.879	0.837	0.318	0.326	0.331	0.307	1.1	1.04	1.03	0.963	0.719	0.835	0.918	0.884	0.73	0.394
NCI-H1975	0.957	0.969	0.792	0.963	0.279	0.278	0.232	0.332	1.19	1.11	1.16	1.02	0.508	1	0.954	0.783	0.841	0.635
NCI-H1993	0.793		0.98	0.823	0.767		0.801	0.831	0.89	0.863	0.659	0.502	0.719	0.749	0.633	0.549	0.487	0.575
NCI-H2009	1.19	1.18	1.06	1.06	0.829	0.858	0.605	0.572	1.16	1.15	1.07	1.07	0.619	1.25	1.14	1.18	1.11	0.801
NCI-H2023	0.881	0.811	1.09	0.742	0.218	0.222	0.302	0.225	0.982	0.99	0.964	0.708	0.255	0.964	0.925	0.785	0.765	0.461
NCI-H2085	0.856	0.92	1.26	0.902	0.421	0.458	0.664	0.416	1.11	1.12	1.1	0.931	0.7	1.09	1.01	0.895	1.05	0.591
NCI-H2087	1.02	0.979		1.12	0.728	0.816		0.802	1.09	0.998	0.8	0.537	0.353	1.11	1.1	1.01	0.863	0.39
NCI-H2126	1.13	0.696	1.31	1.09	0.494	0.4	0.572	0.471	0.885	0.856	0.818	0.679	0.801	1.3	0.983	1.2	0.862	0.786
NCI-H2170	0.907	0.858	1	1.02	0.305	0.157	0.254	0.293	0.651	0.565	0.471	0.535	0.221	1.1	0.962	0.981	0.965	0.667
NCI-H2228	0.845	0.931	0.828	0.869	0.32	0.362	0.684	0.358	0.978	1.34	0.81		0.303	0.887	0.791	0.831	0.745	0.439
NCI-H2347	0.662	0.91	0.843	0.811	0.328	0.659	0.754	0.667	0.916	0.764	0.609	0.626	0.333	0.914	1.15	0.633	0.494	0.468
NCI-H2405	1	1.03		1.03	0.347	0.467		0.48	0.858	0.791	0.768	0.636	0.384	1.02	0.968	0.918	0.734	0.537
NCI-H3122	0.992	0.957	1.02	1.07	0.596	0.596	0.798	0.69	1.03	1.14	1.13	1.03	0.334	1.02	0.998	1.03	0.98	0.45
PC-3 [JPC-3]	0.911		1.05	1.13	0.649		0.857	0.82	0.822	0.765	0.772	0.739	0.547	1.02	0.976	0.963	0.98	0.454
PC-14	0.882		0.876	0.942	0.584		0.805	0.696	1.02	0.998	1.05	1.05	0.939	0.937	0.843	1.03	0.958	0.847
RERF-LC-KJ	0.858	0.816	0.875	0.876	0.838	0.464	0.707	0.597	0.795	1	0.839	0.672	0.289	0.869	0.885	0.919	0.622	0.445
SK-LU-1	0.706	0.709	0.647	0.705	0.545	0.567		0.532	0.743	0.869	0.679	0.453	0.259	0.911	0.816	0.586	0.433	0.28
